Patent publication US9062041B2 (Bayer Intellectual Property GmbH, priority 2011, dated 2015)

Legend:
Assay type in all cases: cell-based
[1] = molecular target: EP2 subtype of the human PGE2 receptor (Homo sapiens, UniProt P43116); experiment: cAMP antagonism test on the human EP2 receptor (HTRF cAMP detection); conditions: hEP2 receptor, read-out: Antagonism hEP2 IC50
How it was run: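 Read-out is a competitive HTRF for cAMP: lysate cAMP displaces cAMP-d2 from Eu cryptate-labelled antibody, and antagonism raises the 665/620 nm ratio. Compound (0.8 nM–16.5 μM) added to EP2 cells 20 min at RT before 60 min PGE2 challenge (3× stock 1.5 nM) with IBMX, followed by 20 min lysis.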

[2] = molecular target: EP4 subtype of the human PGE2 receptor (Homo sapiens, UniProt P35408); experiment: cAMP antagonism test on the human EP4 receptor (HTRF cAMP detection); conditions: selectivity towards hEP4, IC50 measured by cAMP antagonism test
EP4 subtype of the human PGE2 receptor, sequence (P35408 whole entry): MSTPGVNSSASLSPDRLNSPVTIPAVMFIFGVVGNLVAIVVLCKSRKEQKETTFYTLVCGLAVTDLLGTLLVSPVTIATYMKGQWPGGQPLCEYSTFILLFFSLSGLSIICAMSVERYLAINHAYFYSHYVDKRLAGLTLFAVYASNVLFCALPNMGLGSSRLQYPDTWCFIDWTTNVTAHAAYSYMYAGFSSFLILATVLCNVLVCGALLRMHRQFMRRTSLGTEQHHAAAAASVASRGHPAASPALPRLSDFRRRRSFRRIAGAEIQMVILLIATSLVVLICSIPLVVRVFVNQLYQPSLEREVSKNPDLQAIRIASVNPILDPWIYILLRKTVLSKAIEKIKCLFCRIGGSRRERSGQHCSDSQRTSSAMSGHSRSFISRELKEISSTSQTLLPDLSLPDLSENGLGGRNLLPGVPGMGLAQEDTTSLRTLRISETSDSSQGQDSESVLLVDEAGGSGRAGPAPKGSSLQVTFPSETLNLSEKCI
How it was run: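 Competitive HTRF cAMP read-out (cAMP-d2 vs Eu-cryptate anti-cAMP antibody, 665/620 nm ratio) on lysed human EP4 cells. Compound (0.8 nM–16.5 μM) applied 20 min at RT before 60 min PGE2 challenge (3× solution 0.3 nM, IBMX present); 20 min lysis precedes reading.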

[3] = molecular target: T1, human PGD receptor (Homo sapiens, UniProt Q13258); experiment: cAMP antagonism test on the human prostaglandin D receptor (HTRF cAMP detection); conditions: selectivity towards hDP, IC50 measured by cAMP antagonism test
T1 sequence (Q13258 1-359): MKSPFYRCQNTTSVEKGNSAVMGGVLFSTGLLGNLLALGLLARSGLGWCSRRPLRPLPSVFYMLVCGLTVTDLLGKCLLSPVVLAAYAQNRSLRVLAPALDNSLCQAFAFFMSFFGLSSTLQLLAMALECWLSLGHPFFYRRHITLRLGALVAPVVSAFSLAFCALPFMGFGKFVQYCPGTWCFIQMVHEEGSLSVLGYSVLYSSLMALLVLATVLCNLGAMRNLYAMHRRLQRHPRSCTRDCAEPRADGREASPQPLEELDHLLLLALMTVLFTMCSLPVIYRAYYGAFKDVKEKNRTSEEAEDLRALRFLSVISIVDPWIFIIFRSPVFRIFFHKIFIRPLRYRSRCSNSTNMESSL
How it was run: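 HTRF competition read-out (665/620 nm ratio ×10000), where higher FRET means less cAMP, i.e. antagonism. Compounds (0.8 nM–16.5 μM) were preincubated 20 min at RT with cells and cAMP-d2, PGD2 (3× solution, 6 nM) in IBMX-containing PBS added for 30 min at RT, then cells lysed 20 min.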

EP2 subtype of the human PGE2 receptor, sequence (P43116 whole entry): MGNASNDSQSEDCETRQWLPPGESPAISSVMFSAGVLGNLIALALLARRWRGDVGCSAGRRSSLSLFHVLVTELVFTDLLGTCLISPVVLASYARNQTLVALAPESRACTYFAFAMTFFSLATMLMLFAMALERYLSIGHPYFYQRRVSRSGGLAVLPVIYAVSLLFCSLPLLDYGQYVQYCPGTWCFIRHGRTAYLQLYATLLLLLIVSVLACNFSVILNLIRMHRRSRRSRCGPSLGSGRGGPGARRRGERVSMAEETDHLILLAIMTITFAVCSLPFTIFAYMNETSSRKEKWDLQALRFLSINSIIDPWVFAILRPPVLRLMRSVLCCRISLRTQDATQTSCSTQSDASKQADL

| Compound | IC50 [1] [nM] | Selectivity hEP2/hEP4 [2] | Selectivity hEP2/hDP [3] |
| --- | --- | --- | --- |
| COCCNC(=O)c1ccc2nn(C[C@H]3CCN(C(=O)c4ccc(Cl)cc4)C3)cc2c1C [Example 222, 2-{[(S)-1-(4-chlorobenzoyl)pyrrolidin-3-yl]methyl}-N-(2-methoxyethyl)-4-methyl-2H-indazol-5-carboxamide] | 40.9 | xxx (xxx > 100) | xxx (xxx > 100) |
| COCCNC(=O)c1ccc2nn(C[C@H]3CCN(C(=O)c4ccc(-c5ccc(F)cc5)cc4)C3)cc2c1C [Example 223, 2-({(S)-1-[(4′-fluorobiphenyl-4-yl)carbonyl]pyrrolidin-3-yl}methyl)-N-(2-methoxyethyl)-4-methyl-2H-indazol-5-carboxamide] | 20 | xxx (xxx > 100) | xxx (xxx > 100) |
| COCCNC(=O)c1ccc2nn(CC3CCN(C(=O)c4ccc(Cl)cc4)CC3)cc2c1OC(F)F [Example 225, 2-{[1-(4-chlorobenzoyl)piperidin-4-yl]methyl}-4-(difluoromethoxy)-N-(2-methoxyethyl)-2H-indazol-5-carboxamide] | 14.3 | xxx (xxx > 100) | xxx (xxx > 100) |
| COCCNC(=O)c1ccc2nn(CC3CCN(C(=O)c4ccc(C5CC5)cc4)CC3)cc2c1OC(F)F [Example 228, 2-{[1-(4-cyclopropylbenzoyl)piperidin-4-yl]methyl}-4-(difluoromethoxy)-N-(2-methoxyethyl)-2H-indazol-5-carboxamide] | 8.09 | xxx (xxx > 100) | xxx (xxx > 100) |
| O=C(NCCOCC1CC1)c1ccc2nn(CC3CCN(C(=O)c4ccc(Cl)cc4)CC3)cc2c1OC(F)F [Example 229, 2-{[1-(4-chlorobenzoyl)piperidin-4-yl]methyl}-N-[2-(cyclopropylmethoxy)-ethyl]-4-(difluoromethoxy)-2H-indazol-5-carboxamide] | 10.2 | xxx (xxx > 100) | xxx (xxx > 100) |
| COC1CN(CCNC(=O)c2ccc3nn(CC4CCN(C(=O)c5ccc(Cl)cc5)CC4)cc3c2C)C1 [Example 238, 2-{[1-(4-chlorobenzoyl)piperidin-4-yl]methyl}-N-[2-(3-methoxyazetidin-1-yl)ethyl]-4-methyl-2H-indazol-5-carboxamide] | 32.4 | xxx (xxx > 100) | xxx (xxx > 100) |
| CCNC(=O)c1ccc2nn(CC3CCN(C(=O)c4ccc(Cl)cc4)CC3)cc2c1C [Example 242, 2-{[1-(4-chlorobenzoyl)piperidin-4-yl]methyl}-N-ethyl-4-methyl-2H-indazol-5-carboxamide] | 305 | xx (xx: 10-100) | xx (xx: 10-100) |
| Cc1c(C(=O)NCC(C)C)ccc2nn(CC3CCN(C(=O)c4ccc(Cl)cc4)CC3)cc12 [Example 243, 2-{[1-(4-chlorobenzoyl)piperidin-4-yl]methyl}-N-isobutyl-4-methyl-2H-indazol-5-carboxamide] | 335 | xx (xx: 10-100) | xx (xx: 10-100) |
| Cc1c(C(=O)NCCS(C)(=O)=O)ccc2nn(CC3CCN(C(=O)c4ccc(Cl)cc4)CC3)cc12 [Example 244, 2-{[1-(4-chlorobenzoyl)piperidin-4-yl]methyl}-N-(2-mesylethyl)-4-methyl-2H-indazol-5-carboxamide] | 44.2 | xxx (xxx > 100) | xxx (xxx > 100) |

Continued, values first:

| IC50 [1] [nM] | Selectivity hEP2/hEP4 [2] | Selectivity hEP2/hDP [3] | Compound |
| --- | --- | --- | --- |
| 5.62 | xxx (xxx > 100) | xxx (xxx > 100) | COCCNC(=O)c1ccc2nn(C[C@H]3CCN(C(=O)c4ccc(Oc5ccc(C(F)(F)F)cc5)cc4)C3)cc2c1C [Example 224, N-(2-methoxyethyl)-4-methyl-2-{[(S)-1-{4-[4-(trifluoromethyl)phenoxy]benzoyl}pyrrolidin-3-yl]methyl}-2H-indazol-5-carboxamide] |
| 11.9 | xxx (xxx > 100) | xxx (xxx > 100) | COCCNC(=O)c1ccc2nn(CC3CCN(C(=O)c4ccc(Oc5ccc(F)cc5)cc4)CC3)cc2c1OC(F)F [Example 226, 4-(difluoromethoxy)-2-({1-[4-(4-fluorophenoxy)benzoyl]piperidin-4-yl}methyl)-N-(2-methoxyethyl)-2H-indazol-5-carboxamide] |
| 9.89 | xxx (xxx > 100) | xxx (xxx > 100) | COCCNC(=O)c1ccc2nn(CC3CCN(C(=O)c4ccc(-c5ccc(F)cc5)cc4)CC3)cc2c1OC(F)F [Example 227, 4-(difluoromethoxy)-2-({1-[(4′-fluorobiphenyl-4-yl)carbonyl]piperidin-4-yl}methyl)-N-(2-methoxyethyl)-2H-indazol-5-carboxamide] |
| 13.7 | xxx (xxx > 100) | xxx (xxx > 100) | O=C(NCCOCC1CC1)c1ccc2nn(CC3CCN(C(=O)c4ccc(Oc5ccc(F)cc5)cc4)CC3)cc2c1OC(F)F [Example 230, N-[2-(cyclopropylmethoxy)ethyl]-4-(difluoromethoxy)-2-({1-[4-(4-fluoro-phenoxy)benzoyl]piperidin-4-yl}methyl)-2H-indazol-5-carboxamide] |
| 13.2 | xxx (xxx > 100) | xxx (xxx > 100) | O=C(NCCOCC1CC1)c1ccc2nn(CC3CCN(C(=O)c4ccc(-c5ccc(F)cc5)cc4)CC3)cc2c1OC(F)F [Example 231, N-[2-(cyclopropylmethoxy)ethyl]-4-(difluoromethoxy)-2-({1-[(4′-fluorobiphenyl-4-yl)carbonyl]piperidin-4-yl}methyl)-2H-indazol-5-carboxamide] |
| 38.3 | xxx (xxx > 100) | xxx (xxx > 100) | COCCNC(=O)c1ccc2nn(CC3CCN(C(=O)c4ccc(Cl)cc4)CC3)cc2c1OCC(F)(F)F [Example 232, 2-{[1-(4-chlorobenzoyl)piperidin-4-yl]methyl}-N-(2-methoxyethyl)-4-(2,2,2-trifluoroethoxy)-2H-indazol-5-carboxamide] |
| 39.7 | xxx (xxx > 100) | xxx (xxx > 100) | COCCNC(=O)c1ccc2nn(CC3CCN(C(=O)c4ccc(Oc5ccc(F)cc5)cc4)CC3)cc2c1OCC(F)(F)F [Example 233, 2-({1-[4-(4-fluorophenoxy)benzoyl]piperidin-4-yl}methyl)-N-(2-methoxyethyl)-4-(2,2,2-trifluoroethoxy)-2H-indazol-5-carboxamide] |
| 47.7 | xxx (xxx > 100) | xxx (xxx > 100) | COCCNC(=O)c1ccc2nn(CC3CCN(C(=O)c4ccc(-c5ccc(F)cc5)cc4)CC3)cc2c1OCC(F)(F)F [Example 234, 2-({1-[(4′-fluorobiphenyl-4-yl)carbonyl]piperidin-4-yl}methyl)-N-(2-methoxy-ethyl)-4-(2,2,2-trifluoroethoxy)-2H-indazol-5-carboxamide] |
| 16.7 | xxx (xxx > 100) | xxx (xxx > 100) | O=C(NCCOCC1CC1)c1ccc2nn(CC3CCN(C(=O)c4ccc(Cl)cc4)CC3)cc2c1OCC(F)(F)F [Example 235, 2-{[1-(4-chlorobenzoyl)piperidin-4-yl]methyl}-N-[2-(cyclopropylmethoxy)-ethyl]-4-(2,2,2-trifluoroethoxy)-2H-indazol-5-carboxamide] |
| 57.5 | xxx (xxx > 100) | xxx (xxx > 100) | O=C(NCCOCC1CC1)c1ccc2nn(CC3CCN(C(=O)c4ccc(Oc5ccc(F)cc5)cc4)CC3)cc2c1OCC(F)(F)F [Example 236, N-[2-(cyclopropylmethoxy)ethyl]-2-({1-[4-(4-fluorophenoxy)benzoyl]piperidin-4-yl}methyl)-4-(2,2,2-trifluoroethoxy)-2H-indazol-5-carboxamide] |
| 31 | xxx (xxx > 100) | xxx (xxx > 100) | O=C(NCCOCC1CC1)c1ccc2nn(CC3CCN(C(=O)c4ccc(-c5ccc(F)cc5)cc4)CC3)cc2c1OCC(F)(F)F [Example 237, N-[2-(cyclopropylmethoxy)ethyl]-2-({1-[(4′-fluorobiphenyl-4-yl)carbonyl]piperidin-4-yl}methyl)-4-(2,2,2-trifluoroethoxy)-2H-indazol-5-carboxamide] |
